Values quoted from earlier work, collected in patent US20250152701A1, “NKT CELL LIGAND-CONTAINING LIPOSOME COMPOSITION” (RIKEN, priority 2022, published 2025).

Conditions: Non Patent Literature 6

In the case of `CCCCCCCCCCCCCCCCCCCCCCCCCC(=O)N[C@@H](CO[C@H]1OC(CO)[C@H](O)C(O)C1O)[C@H](O)[C@H](O)CCCCCCCCCCCCCC` (stereo partly shown) [KRN7000], the anti-tumor activity is given as “extremely strong anti-tumor activity”.
